Data reported in ChEMBL document CHEMBL5226355, “Design and Synthesis of Indenoisoquinolines Targeting Topoisomerase I and Other Biological Macromolecules for Cancer Chemotherapy” (J Med Chem, 2021).

Tests used:
Leishmania infantum [1] = test: Antileishmanial activity against Leishmania infantum promastigotes BCN150; type: functional, organism-based
Leishmania infantum [2] = test: Antileishmanial activity against Leishmania infantum promastigote infected in BALB/c mouse assessed as reduction in parasite burden in spleen at 2.5 mg/kg, iv administered once every other day for 15 days; type: functional; parameters: scale not given: the % may be the effect or the level left; conditions: time 15 day
Leishmania infantum [3] = test: Antileishmanial activity against Leishmania infantum promastigote infected in BALB/c mouse assessed as reduction in parasite burden in liver at 2.5 mg/kg, iv administered once every other day for 15 days; type: functional; parameters: scale not given: the % may be the effect or the level left; conditions: time 15 day
KB [4] = test: Cytotoxicity against human KB cells; type: functional, cell-based
KB [5] = test: Cytotoxicity against FR-knockdown human KB cells; type: functional, cell-based

Work on `CC[C@@]1(O)C(=O)OCc2c1cc1n(c2=O)Cc2cc3ccccc3nc2-1` [CAMPTOTHECIN] yielded an IC50 (Leishmania infantum [1]) of 1.12 µM.
`O=C1c2ccccc2-c2c1c1ccc([N+](=O)[O-])cc1c(=O)n2CCCN1CCOCC1` was tested, and the Activity (Leishmania infantum [2]) was >80% and the Activity (Leishmania infantum [3]) was >80%.
`NC[C@@H]1O[C@H](O[C@H]2[C@@H](O)[C@H](O[C@@H]3[C@@H](O)[C@H](N)C[C@H](N)[C@H]3O[C@H]3O[C@H](CO)[C@@H](O)[C@H](O)[C@H]3N)O[C@@H]2CO)[C@H](N)[C@@H](O)[C@@H]1O` [PAROMOMYCIN] showed an IC50 (Leishmania infantum [1]) of 42.4 µM.
For `COc1cc2c3c(n(CCCN4CCOCC4)c(=O)c2cc1OC)-c1cc2c(cc1C3=O)OCO2` [INDOTECAN], the IC50 (Leishmania infantum [1]) was 0.1 µM.
With `CCOC(c1ccc(COCC(=O)NCCOCCOCCOCCOCCOCCNC(=O)CC[C@H](NC(=O)c2ccc(NCc3cnc4nc(N)nc(O)c4n3)cc2)C(=O)O)cc1OC)n1cnc(CCn2c3c(c4ccccc4c2=O)C(=O)c2ccccc2-3)c1` (some centres not stated) the IC50 (KB [4]) was 60 µM and the IC50 (KB [5]) was 655 µM.
